The target in data set [1] is Wnt-responsive promoter (TCF/LEF). Description: Wnt-dependent luciferase reporter assay. In kind it is cell-based, murine. An outline of the steps: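 Murine 3T3 fibroblasts carrying a TCF/LEF-driven luciferase reporter, stimulated with Wnt3a in the presence of increasing peptide concentrations or vehicle. Luminescence inhibition gave EC50 values in uM.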
For the next data set, the system named is mouse EMS lesion cells. In kind it is cell-based. How it is done:
(§1) Peptides inhibiting β-catenin cause decreased cell viability in a colon cancer cell line (SW480) and endometriosis lesions excised from a disease animal model. Peptides from libraries described herein are characterized in their effect on cell viability, as measured using a luminescent cell viability assay (Cell Titer-Glo®, Promega, Madison, WI) and expressed as IC50 in Table 5. Peptide inhibitors were tested for their ability to inhibit cellular proliferation across 2 different β-catenin expressing pathogenic cell lines: a colon cancer cell line (SW480) and/or mouse EMS lesion cells derived from mouse model of disease. Both cells lines are naturally known to express high levels of β-catenin. Cell lines were incubated with varying concentrations of peptide concentration and assessed for viability after day 5 and 7 days. The CellTiter-Glo® Luminescent Cell Viability Assay (Promega) is used to detect viable cells. IC50 values are graphed and calculated using Prism software (GraphPad) based on the cell viability readouts. IC50 is used to assess inhibition of cell proliferation by peptide concentration and is used to calculate the inhibitory effect of each peptide across each line. The results are used to assess the therapeutic potency of the peptides. In the SW480 cell line, peptide inhibitors from Family 1 (SEQ ID NO:264) and Family 2 (SEQ ID NO:396) were added daily to the cell growth medium. After 7 days, cell viability was assessed with the Cell-Titer Glo kit (Promega, Madison, WI). […] IC50 was calculated for peptides based on the concentration at which 50% viability was observed (Table 5).

Data set [2] has as its system colon cancer cell line (SW480). In kind it is cell-based. How it is done:
as §1

The next data set relates to EMS lesions. Particulars: 5 mg/kg IP daily for three weeks, versus vehicle.
Data set [3] concerns the target T1, β-catenin (Homo sapiens, UniProt P35222).
T1 sequence (P35222 1-781): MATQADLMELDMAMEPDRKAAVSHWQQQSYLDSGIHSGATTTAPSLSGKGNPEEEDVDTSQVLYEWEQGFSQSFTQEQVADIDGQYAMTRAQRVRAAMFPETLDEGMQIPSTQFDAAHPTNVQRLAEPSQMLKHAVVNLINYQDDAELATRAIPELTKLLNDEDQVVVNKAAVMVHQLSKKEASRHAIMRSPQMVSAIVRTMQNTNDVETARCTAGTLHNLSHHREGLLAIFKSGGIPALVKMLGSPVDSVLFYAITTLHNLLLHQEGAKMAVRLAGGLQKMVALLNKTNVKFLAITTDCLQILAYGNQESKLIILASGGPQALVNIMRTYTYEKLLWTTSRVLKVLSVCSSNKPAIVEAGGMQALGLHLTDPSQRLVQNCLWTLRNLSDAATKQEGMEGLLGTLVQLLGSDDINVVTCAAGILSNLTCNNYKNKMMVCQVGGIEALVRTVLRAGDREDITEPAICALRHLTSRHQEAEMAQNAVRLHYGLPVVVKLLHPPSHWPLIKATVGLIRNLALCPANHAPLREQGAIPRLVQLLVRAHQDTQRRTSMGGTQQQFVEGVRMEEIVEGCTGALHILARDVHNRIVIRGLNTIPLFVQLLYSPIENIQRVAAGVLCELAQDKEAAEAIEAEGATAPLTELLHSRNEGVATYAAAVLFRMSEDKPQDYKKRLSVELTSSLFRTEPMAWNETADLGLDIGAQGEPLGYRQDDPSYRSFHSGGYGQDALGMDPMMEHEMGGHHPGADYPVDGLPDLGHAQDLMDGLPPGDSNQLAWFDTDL
Description: KD50 measurement using competitive fluorescence polarization (FP) with labelled TCF4. Conditions: fluorescence polarization, β-catenin; for Kd: read-out: β-Cat FP KD. In kind it is binding. Summed up: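 Competitive FP in which unlabelled inhibitor (10 nM to 30 uM dilution series) displaces 5 nM labelled TCF4 from 100 nM β-catenin, room temperature. Read-out ex 470 nm, em 520 nm; experiment repeated three times.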

The target of data set [4] is T2, β-catenin (Mus musculus, UniProt Q02248).
T2 construct: from tissue; host or cells: endometriosis lesions of the mouse model
T2 sequence (Q02248 1-781): T1 sequence (P35222 1-781) with P706A
Description: Immunohistochemistry of β-catenin localization in lesions, area thresholding. In kind it is in vivo. Conditions: IP daily for 3 weeks. On the procedure: Endometriosis was established in a mouse model of disease. Mice were allowed to establish endometriosis for 3 weeks. After the first 3 weeks, mice were then intraperitoneally treated daily for 3 weeks with the therapeutic peptides corresponding to SEQ ID NOs: 215 or 393 or untreated negative control. To assess the localization of the peptides and β-catenin, lesions from the endometriosis mouse model were assessed. On the last day of treatment, in order to visualize the peptide localization to the lesion(s), mice were dosed with a biotinylated tagged peptide therapeutic or control. Mice were euthanized, lesions were removed, and fixed in formalin for histology and immunohistochemistry. Fixed and sectioned lesions were incubated with antibodies specific for β-catenin (Cell Signaling, 1:100, Secondary: Fisher Scientific, Goat anti-Rabbit-647 1:200), streptavidin for biotinylated-therapeutic (Fisher Scientific, SA-405 1:100), and Sytox green for nucleus (Fisher Scientific, 1:300). Immunohistochemical negative controls were performed on lesion sections from all treatment groups using IgG non-specific antibodies (Rabbit-IgG, AbCam 1:100).
Quantification of β-catenin localization was performed using the Zeiss Blue Software via thresholding. Thresholding allows the software to calculate the area of staining using pixel intensity; therefore, a quantitative number for staining can be extrapolated for the different cellular compartments (See Table 6).

The next data set deals with EMS lesion. Conditions: across the subtypes of EMS; cited from earlier work.

What is called EC50 is the concentration that produces a half-maximal response. Read a low EC50 as higher potency in that assay. The IC50 is the midpoint of a concentration-inhibition curve. High values mean lower potency, low ones higher potency. Usually Kd stands for a measure of binding affinity in units of concentration.

Changes are numbered by the printed parent chain. “And” between values parts separate entries of the source, which are not always exact repeats. Equal values may be shown once. Where a SMILES comes first, the peptide text is derived from it. Bounds are passed on as bounds.

Description for EMS lesions: Lesions were established in an EMS mouse model of endometriosis by intraperitoneal injection of minced GFP+ uterine tissue from a mouse into wild-type c57/b16 mice. […] Endometrial disease was established in the mice and allowed to progress for three weeks prior to the initiation of therapy.

`CCCCCCCCCCCCCCCC(=O)N[C@@H](Cc1c[nH]c2ccccc12)C(=O)N(C)[C@@H](Cc1c[nH]c2ccccc12)C(=O)N[C@@H](CCC(=O)O)C(=O)NC(C)(CO)C(=O)N[C@H](C(=O)N[C@@H](CC(C)C)C(=O)N[C@@H](CC(=O)O)C(=O)N[C@@H](CCC(=O)O)C(=O)N[C@@H](Cc1c[nH]cn1)C(=O)NC(C)(C(=O)N[C@@H](CCC(N)=O)C(=O)N[C@@H](CCCNC(=N)N)C(=O)N[C@H](C(=O)N[C@@H](Cc1c[nH]c2ccccc12)C(=O)NCC(=O)O)C(C)C)C(C)C)[C@@H](C)CC` (single isomer, unassigned) [compound 396] displayed an EC50 in data set [1] of 7.5 to 15 µM. The results for the IC50 (in the data set on mouse EMS lesion cells; in data set [2]) were 15 µM and 2.9 µM, respectively.
For `CCCC[C@@H]1NC(=O)[C@@H](NC(C)=O)CCCCNC(=O)C[C@@H](C(=O)O)NC(=O)[C@H](Cc2c[nH]c3ccccc23)NC(=O)[C@H](C)NC(=O)[C@H](CC)NC(=O)[C@H]([C@@H](C)CC)NC(=O)[C@H](CC(C)C)NC(=O)[C@H](CC2CCCCC2)NC(=O)[C@H](Cc2c[nH]c3ccccc23)NC1=O` [SEQ ID NO: 215, Cyclo-Ac-K*Nle-W-Cha-LI-Abu-AWD*-COOH] (HELM PEPTIDE1{[ac].K.[Nle].W.[Cha].L.I.[Abu].A.W.D}$PEPTIDE1,PEPTIDE1,2:R3-11:R3$$$V2.0), in the data set on EMS lesions, the Activated macrophages entry is listed as “relative increase”; the “Relative numbers of activated macrophages, foam cells, polymorphonuclear neutrophils, B cells and T cells at the site of lesions (histology)” value was “increase in the relative numbers”. Also, at β-catenin [3] (listed as 2), the “β-Cat FP Hill slope” value is reported as 0.82. Further, on β-catenin [4] (average of lesion samples), the “% membrane bound β-catenin (staining area threshold), Average” value is reported as 46.4% and the “% nuclear β-catenin (staining area threshold), Average” value worked out at 1.0%. Besides, on β-catenin [4] (single lesion sample, listed as Peptide 2), the “% nuclear β-catenin (staining area threshold)” value was 0.8% and 1.2% and 1.1%.
`CC[C@H](C)[C@H](NC(=O)[C@H](CC(C)C)NC(=O)[C@H](Cc1ccccc1)NC(=O)[C@H](Cc1c[nH]c2ccccc12)NC(=O)[C@@H](N)CCSC)C(=O)N[C@@H](CS)C(=O)N[C@@H](Cc1ccccc1)C(=O)N[C@@H](Cc1c[nH]c2ccccc12)C(=O)NCC(=O)O` [compound 42] (H-MWFLICFWG-OH) registered an EC50 in data set [1] of less than 7.5 µM. Further, at β-catenin [3], the “β-Cat FP Hill slope” value came out at 0.96 and the Kd is less than 0.4 µM. Moreover, the “% Viability non-Wnt responsive cells” value with non-Wnt responsive cells was 108.69%.
In the same order, the values of `CC[C@H](C)[C@H](NC(=O)[C@H](CC(C)C)NC(=O)[C@@H](NC(=O)[C@H](Cc1c[nH]c2ccccc12)NC(=O)[C@@H](N)CCSC)[C@@H](C)CC)C(=O)N[C@@H](CO)C(=O)N[C@@H](Cc1ccccc1)C(=O)N[C@@H](Cc1c[nH]c2ccccc12)C(=O)NCC(=O)O` [compound 43] (H-MWILISFWG-OH) are less than 7.5 µM, 0.92, 0.4 to 1 µM and 98.97%.
Turning to `CC[C@H](C)[C@@H]1NC(=O)[C@H](CC(C)C)NC(=O)[C@H](Cc2ccccc2)NC(=O)[C@H](Cc2c[nH]c3ccccc23)NC(=O)[C@@H](N)CCCCNC(=O)CC[C@@H](C(=O)N[C@@H](Cc2c[nH]c3ccccc23)C(=O)NCC(=O)O)NC(=O)[C@H](CS)NC1=O` [compound 181] (HELM PEPTIDE1{K.W.F.L.I.C.E.W.G}$PEPTIDE1,PEPTIDE1,1:R3-7:R3$$$V2.0), in data set [1], the EC50 is more than 30 µM. Moreover, the “β-Cat FP Hill slope” value on β-catenin [3] stood at 1.15. For the same molecule, the “% Viability non-Wnt responsive cells” value with non-Wnt responsive cells stood at 89.16%.
In data set [1], `CC[C@@H]1NC(=O)[C@H]([C@@H](C)CC)NC(=O)[C@H](CC(C)C)NC(=O)[C@H](CC2CCCCC2)NC(=O)[C@H](Cc2c[nH]c3ccccc23)NC(=O)[C@@H](NC(C)=O)CCCCNC(=O)C[C@@H](C(=O)O)NC(=O)[C@H](Cc2c[nH]c3ccccc23)NC(=O)[C@H](C)NC1=O` [compound 261] (HELM PEPTIDE1{[ac].K.W.[Cha].L.I.[Abu].A.W.D}$PEPTIDE1,PEPTIDE1,2:R3-10:R3$$$V2.0) gave an EC50 of 7.5 to 15 µM. Besides, on β-catenin [3], the “β-Cat FP Hill slope” value is reported as 3 and the equilibrium dissociation constant (Kd) was in the range of 0.4 to 1 µM. The molecule further registered an IC50 in the data set with mouse EMS lesion cells of 7.7 µM. Moreover, half-maximal inhibition in data set [2] (IC50) was put at 4 µM.
Take `CCCCCCCCCCCC(=O)N[C@@H](Cc1c[nH]c2ccccc12)C(=O)N(C)[C@@H](C)C(=O)N[C@@H](CCC(N)=O)C(=O)N[C@H]1CCCCNC(=O)C[C@@H](C(=O)N[C@@H](Cc2c[nH]cn2)C(=O)N[C@H](C(=O)N[C@@H](CCC(N)=O)C(=O)N[C@@H](CCCNC(=N)N)C(=O)N[C@H](C(=O)N[C@@H](Cc2c[nH]c3ccccc23)C(=O)NCC(N)=O)C(C)C)C2CCCCC2)NC(=O)[C@H](CC(=O)O)NC(=O)[C@H](CC(C)C)NC(=O)[C@H]([C@@H](C)CC)NC1=O` [compound 432] (HELM PEPTIDE1{[CCCCCCCCCCCC(=O)[*:2]].W.[meA].Q.K.I.L.D.D.H.[O=C([C@@H](N[*:1])C1CCCCC1)[*:2]].Q.R.V.W.G.[am]}$PEPTIDE1,PEPTIDE1,5:R3-9:R3$$$V2.0): at β-catenin [3], the Kd is less than 0.4 µM. The IC50 in the data set on mouse EMS lesion cells is 0.8 µM; in data set [2], 14.9 µM.
For the molecule `O=C(Nc1ccc([N+](=O)[O-])cc1Cl)c1cc(Cl)ccc1O` [niclosamide], in the data set with EMS lesion, the EMS lesion progression result is given as “successfully reversed”.
On to CGP049090, for which the EMS lesion progression result in the data set on EMS lesion was “successfully reversed”.
On to PKF 115-584, for which the EMS lesion progression result in the data set on EMS lesion was “successfully reversed”.
